Values quoted from earlier work as cited in patent publication US9695323B2, “UV curable solventless antimicrobial compositions” (Becton, Dickinson and Company, priority 2013, dated 2017).

Test system: Staphylococcus epidermidis

Compound: CC(=O)O.CC(=O)O.NC(=N\CCCCCC/N=C(N)/N=C(\N)Nc1ccc(Cl)cc1)/N=C(\N)Nc1ccc(Cl)cc1 [chlorhexidine diacetate]
- minimum inhibitory concentration: 2 µg/mL
